# Data taken from patent US6992169B2, “Carrier based drug delivery system” (Cyclacel Limited, priority 1998, dated 2006).
# Where no end group is shown, it is not given here.
# Tests used:
# [1] = Serum stability of peptide vectors; conditions: for half-life: bovine, serum
# Procedure: Test compounds were dissolved in cell-conditioned tissue culture medium (10% FCS in DMEM) at concentrations varying from 1 to 40 μM. The solutions were incubated at 37° C. and samples were withdrawn at intervals. After filtration, aliquots were analysed by RP-HPLC (using a photodiode array UV detector). Intact vectors were identified by reference to chromatograms obtained with authentic peptides and by DE MALDI-TOF analysis of appropriate peak fractions. […] The latter was chosen preferentially in order to replicate the conditions used for cytotoxicity assays on cell cultures.
# [2] = Serum stability of drug-ester linkages; assay type: in vitro ADME; conditions: bovine; 10% FCS in DMEM, 1 to 40 μM, 37° C.; appearance of free drug; read-out: Serum t1/2 of Drug-Linker Ester bond
# Procedure: Hydrolysis of the ester bonds between the drug hydroxy groups and the linker carboxyl groups was assessed by appearance of free podophyllotoxin or paclitaxel.
# HT29 = experiment: In vitro cytotoxic activity, inhibition of cell proliferation, ATP bioluminescence (ViaLight); assay type: cell-based, human
# Procedure: (§1) This compound (abbreviated ‘MTX-Pen’ in the tables below) was evaluated for its ability to inhibit cell proliferation of normal (immortalised) human cells (HaCaT cells, Tables 1 & 2) and a human colorectal cancer cell line (HT29, Table 3).
# (§2) Assay procedure—Cells were seeded into 96-well plates at 2,500 cells/well in DMEM with 10% FCS and antibiotics. After overnight incubation, test compound dilutions in cell medium were prepared and were added to the cells. Samples were taken 1, 2, 3, and 4 days after compound addition. Nucleotide Releasing Reagent (LumiTech ViaLight kit) was added in order to lyse the cells and release ATP. After incubation at room temperature (5 min), the mixtures were transferred to opaque 96-well plates and stored at −20° C. until analysis. After loading plates into a luminometer (Lucy 1, Labtech International), ATP Monitoring Reagent (20 μL/well, LumiTech ViaLight kit) was added to each well successively and light intensity was measured immediately. Six readings were taken per sample. Each assay point was established using six replicates and appropriate controls. […] Statistically significant results in the tables below are printed in bold face.
# (§3) This compound (abbreviated ‘MTX-Pen’ in tables below) was evaluated for its ability to inhibit cell proliferation of normal (immortalised) human cells (HaCaT cells, Tables 1 & 2) and a human colorectal cancer cell line (HT29, Table 3).
# (§4) Assay procedure—Cells were seeded into 96-well plates at 2,500 cells/well in DMEM with 10% foetal calf serum and antibiotics. After overnight incubation, test compound dilutions in cell medium were prepared and were added to the cells. Samples were taken 1, 2, 3, and 4 days after compound addition. Nucleotide Releasing Reagent (LumiTech ViaLight kit) was added in order to lyse the cells and release ATP. After incubation at room temperature (5 min), the mixtures were transferred to opaque 96-well plates and stored at −20° C. until analysis. After loading plates into a luminometer (Lucy 1, Labtech International), ATP Monitoring Reagent ([…], LumiTech ViaLight kit) was added to each well successively and light intensity was measured immediately. Six readings were taken per sample. Each assay point was established using six replicates and appropriate controls.
# HaCaT cells = experiment: as above; assay type: cell-based, human
# Procedure: as §1, §2, §3, §4
compound,measurement,setting,value
H-RRMKWKK-NH2 [H-Arg-Arg-Met-Lys-Trp-Lys-Lys-NH2],half-life,[1],3 h
CC[C@@H](C)[C@@H](NC(=O)[C@@H](CCCCN)NC(=O)[C@H](NC(=O)[C@@H](CCC(N)=O)NC(=O)[C@H](N)CCCNC(=N)N)[C@H](C)CC)C(=O)N[C@H](Cc1c[nH]c2ccccc12)C(=O)N[C@H](Cc1ccccc1)C(=O)N[C@H](CCC(N)=O)C(=O)N[C@H](CC(N)=O)C(=O)N[C@H](CCCNC(=N)N)C(=O)N[C@H](CCCNC(=N)N)C(=O)N[C@H](CCSC)C(=O)N[C@H](CCCCN)C(=O)N[C@H](Cc1c[nH]c2ccccc12)C(=O)N[C@H](CCCCN)C(=O)N[C@H](CCCCN)C(N)=O [H-D-Arg-D-Gln-D-Ile-D-Lys-D-Ile-D-Trp-D-Phe-D-Gln-D-Asn-D-Arg-D-Arg-D-Met-D-Lys-D-Trp-D-Lys-D-Lys-NH3],half-life,[1],> 24 h
CCC(C)[C@H](NC(=O)[C@H](CCCCN)NC(=O)[C@@H](NC(=O)[C@H](CCC(N)=O)NC(=O)[C@H](CCCNC(=N)N)NC(=O)[C@@H](N)CSCC(=O)O[C@H]1c2cc3c(cc2[C@@H](c2cc(OC)c(OC)c(OC)c2)[C@H]2C(=O)OC[C@@H]21)OCO3)C(C)CC)C(=O)N[C@@H](Cc1c[nH]c2ccccc12)C(=O)N[C@@H](Cc1ccccc1)C(=O)N[C@@H](CCC(N)=O)C(=O)N[C@@H](CC(N)=O)C(=O)N[C@@H](CCCNC(=N)N)C(=O)N[C@@H](CCCNC(=N)N)C(=O)N[C@@H](CCSC)C(=O)N[C@@H](CCCCN)C(=O)N[C@@H](Cc1c[nH]c2ccccc12)C(=O)N[C@@H](CCCCN)C(=O)N[C@@H](CCCCN)C(=O)O (stereo partly drawn) [B],half-life,[2],0.667 h
"{[4[N-(2,4-Diamino-6-pteridinyl-methyl)-N-methylamino]benzoyl]-Glu-Gly-βAla}4-Lys2-Lys-βAla-Arg-Gln-Ile-Lys-Ile-Trp-Phe-Gln-Asn-Arg-Arg-Met-Lys-Trp-Lys-Lys-OH [MTX-Pen]",% Cell Death,"HT29; Table 3, HT 29, Dose 0.5 μM, Day 1",14%
same,% Cell Death,"HT29; Table 3, HT 29, Dose 0.5 μM, Day 2",8%
same,% Cell Death,"HT29; Table 3, HT 29, Dose 0.5 μM, Day 3",17%
same,% Cell Death,"HT29; Table 3, HT 29, Dose 0.5 μM, Day 4",16%
same,% Cell Death,"HT29; Table 3, HT 29, Dose 1.5 μM, Day 1",16%
same,% Cell Death,"HT29; Table 3, HT 29, Dose 1.5 μM, Day 2",9%
same,% Cell Death,"HT29; Table 3, HT 29, Dose 1.5 μM, Day 3",15%
same,% Cell Death,"HT29; Table 3, HT 29, Dose 1.5 μM, Day 4",45%
same,% Cell Death,"HT29; Table 3, HT 29, Dose 4.4 μM, Day 1",10%
same,% Cell Death,"HT29; Table 3, HT 29, Dose 4.4 μM, Day 2",6%
same,% Cell Death,"HT29; Table 3, HT 29, Dose 4.4 μM, Day 3",46%
same,% Cell Death,"HT29; Table 3, HT 29, Dose 4.4 μM, Day 4",77%
same,% Cell Death,"HT29; Table 3, HT 29, Dose 13.3 μM, Day 1",3%
same,% Cell Death,"HT29; Table 3, HT 29, Dose 13.3 μM, Day 2",45%
same,% Cell Death,"HT29; Table 3, HT 29, Dose 13.3 μM, Day 3",88%
same,% Cell Death,"HT29; Table 3, HT 29, Dose 13.3 μM, Day 4",96%
same,% Cell Death,"HT29; Table 3, HT 29, Dose 40.0 μM, Day 1",31%
same,% Cell Death,"HT29; Table 3, HT 29, Dose 40.0 μM, Day 2",79%
same,% Cell Death,"HT29; Table 3, HT 29, Dose 40.0 μM, Day 3",96%
same,% Cell Death,"HT29; Table 3, HT 29, Dose 40.0 μM, Day 4",98%
same,% Cell Death,"HaCaT cells; Table 1, HaCaT, Dose 0.2 μM, Day 1",14%
same,% Cell Death,"HaCaT cells; Table 1, HaCaT, Dose 0.2 μM, Day 2",21%
same,% Cell Death,"HaCaT cells; Table 1, HaCaT, Dose 0.2 μM, Day 3",20%
same,% Cell Death,"HaCaT cells; Table 1, HaCaT, Dose 0.2 μM, Day 4",51%
same,% Cell Death,"HaCaT cells; Table 1, HaCaT, Dose 0.5 μM, Day 1",−19%
same,% Cell Death,"HaCaT cells; Table 1, HaCaT, Dose 0.5 μM, Day 2",2%
same,% Cell Death,"HaCaT cells; Table 1, HaCaT, Dose 0.5 μM, Day 3",29%
same,% Cell Death,"HaCaT cells; Table 1, HaCaT, Dose 0.5 μM, Day 4",49%
same,% Cell Death,"HaCaT cells; Table 1, HaCaT, Dose 1.5 μM, Day 1",−24%
same,% Cell Death,"HaCaT cells; Table 1, HaCaT, Dose 1.5 μM, Day 2",82%
same,% Cell Death,"HaCaT cells; Table 1, HaCaT, Dose 1.5 μM, Day 3",82%
same,% Cell Death,"HaCaT cells; Table 1, HaCaT, Dose 1.5 μM, Day 4",88%
same,% Cell Death,"HaCaT cells; Table 1, HaCaT, Dose 4.4 μM, Day 1",−8%
same,% Cell Death,"HaCaT cells; Table 1, HaCaT, Dose 4.4 μM, Day 2",45%
same,% Cell Death,"HaCaT cells; Table 1, HaCaT, Dose 4.4 μM, Day 3",95%
same,% Cell Death,"HaCaT cells; Table 1, HaCaT, Dose 4.4 μM, Day 4",98%
same,% Cell Death,"HaCaT cells; Table 1, HaCaT, Dose 13.3 μM, Day 1",−42%
same,% Cell Death,"HaCaT cells; Table 1, HaCaT, Dose 13.3 μM, Day 2",63%
same,% Cell Death,"HaCaT cells; Table 1, HaCaT, Dose 13.3 μM, Day 3",97%
same,% Cell Death,"HaCaT cells; Table 1, HaCaT, Dose 13.3 μM, Day 4",98%
same,% Cell Death,"HaCaT cells; Table 1, HaCaT, Dose 40.0 μM, Day 1",29%
same,% Cell Death,"HaCaT cells; Table 1, HaCaT, Dose 40.0 μM, Day 2",82%
same,% Cell Death,"HaCaT cells; Table 1, HaCaT, Dose 40.0 μM, Day 3",97%
same,% Cell Death,"HaCaT cells; Table 1, HaCaT, Dose 40.0 μM, Day 4",98%
same,% Cell Death,"HaCaT cells; Table 2, HaCaT, Dose 0.5 μM, Day 1",13%
same,% Cell Death,"HaCaT cells; Table 2, HaCaT, Dose 0.5 μM, Day 2",24%
same,% Cell Death,"HaCaT cells; Table 2, HaCaT, Dose 0.5 μM, Day 3",−27%
same,% Cell Death,"HaCaT cells; Table 2, HaCaT, Dose 0.5 μM, Day 4",2%
same,% Cell Death,"HaCaT cells; Table 2, HaCaT, Dose 1.5 μM, Day 1",19%
same,% Cell Death,"HaCaT cells; Table 2, HaCaT, Dose 1.5 μM, Day 2",12%
same,% Cell Death,"HaCaT cells; Table 2, HaCaT, Dose 1.5 μM, Day 3",−16%
same,% Cell Death,"HaCaT cells; Table 2, HaCaT, Dose 1.5 μM, Day 4",17%
same,% Cell Death,"HaCaT cells; Table 2, HaCaT, Dose 4.4 μM, Day 1",15%
same,% Cell Death,"HaCaT cells; Table 2, HaCaT, Dose 4.4 μM, Day 2",52%
same,% Cell Death,"HaCaT cells; Table 2, HaCaT, Dose 4.4 μM, Day 3",95%
same,% Cell Death,"HaCaT cells; Table 2, HaCaT, Dose 4.4 μM, Day 4",88%
same,% Cell Death,"HaCaT cells; Table 2, HaCaT, Dose 13.3 μM, Day 1",27%
same,% Cell Death,"HaCaT cells; Table 2, HaCaT, Dose 13.3 μM, Day 2",87%
same,% Cell Death,"HaCaT cells; Table 2, HaCaT, Dose 13.3 μM, Day 3",95%
same,% Cell Death,"HaCaT cells; Table 2, HaCaT, Dose 13.3 μM, Day 4",94%
same,% Cell Death,"HaCaT cells; Table 2, HaCaT, Dose 40.0 μM, Day 1",42%
same,% Cell Death,"HaCaT cells; Table 2, HaCaT, Dose 40.0 μM, Day 2",88%
same,% Cell Death,"HaCaT cells; Table 2, HaCaT, Dose 40.0 μM, Day 3",95%
same,% Cell Death,"HaCaT cells; Table 2, HaCaT, Dose 40.0 μM, Day 4",94%
RQIKIWFQNRRMKWK [15mer peptide],Serum stability of vector in words,[1],survive for several h
CC[C@H](C)[C@H](NC(=O)[C@H](CCCCN)NC(=O)[C@@H](NC(=O)[C@H](CCC(N)=O)NC(=O)[C@@H](N)CCCNC(=N)N)[C@@H](C)CC)C(=O)N[C@@H](Cc1c[nH]c2ccccc12)C(=O)N[C@@H](Cc1ccccc1)C(=O)N[C@@H](CCC(N)=O)C(=O)N[C@@H](CC(N)=O)C(=O)N[C@@H](CCCNC(=N)N)C(=O)N[C@@H](CCCNC(=N)N)C(=O)N[C@@H](CCSC)C(=O)N[C@@H](CCCCN)C(=O)N[C@@H](Cc1c[nH]c2ccccc12)C(=O)N[C@@H](CCCCN)C(=O)N[C@@H](CCCCN)C(N)=O,half-life,[1],> 12 h
